Data: patent US9845311B2, “Nrf2 activating compounds and uses thereof” (RIGEL PHARMACEUTICALS, INC., priority 2016, dated 2017)
Structures can show the parent of a compound that is named as a salt.

How the values were obtained:
[1] = test system: NrF2 (Nuclear factor (erythroid-derived 2)-like 2); experiment: NrF2 activation in a whole cell nuclear translocation assay; assay type: cell-based
Experimental: Compounds are tested in a NrF2 (Nuclear factor (erythroid-derived 2)-like 2) translocation assay by adapting the methods set forth in U.S. Pat. No. 8,101,373, the disclosure of which is incorporated herein by reference. A result of NrF2 activation in the assay by the present compounds is an indication of their anti-inflammatory activity. […] In addition to monomethyl fumarate and dimethyl fumarate, bardoxolone methyl may be used as a positive control.

[2] = Glutathione depletion assay (Michael addition to reduced glutathione, followed by 1H NMR); assay type: physicochemical; details: 2 equiv. reduced glutathione, d6-DMSO, 35° C.
Source text: See, for example, Lehmann et al. Dimethyfumarate Induces Immunosuppression via Glutathione Depletion and Subsequent Induction of Heme Oxygenase 1, Journal of Investigative Dermatology (2007) 127, 835-845. Accordingly, the present compounds may be assessed in vitro by reaction with glutathione as follows:
(with the top securely fastened).
In all the above cases, dis-appearance of the alkene proton signals from the starting material are used to determine the extent of Michael reaction with glutathione.
As would be understood by those of skill in the art, the above experiments can be repeated by varying the equivalents of reduced glutathione (0.5 to 2 equivalents); the reactions can also be run in a mixture of d6-DMSO and D2O; and the temperature of the reaction can also be varied from room temperature to 35° C. (35° C. being used to mimic body temperature). As used herein “majority reaction” means a greater than 50% reduction in alkene proton signal as observed by ^1H NMR.

[3] = test system: experimental autoimmune encephalomyelitis (EAE); experiment: Experimental autoimmune encephalomyelitis (EAE) animal model; assay type: in vivo, mice; details: dosed at 60 mg/kg beginning on the day of immunization

SMILES	EC50 [1] [µM]	time to majority reaction with glutathione (greater than 50% reduction in alkene proton signal by 1H NMR) [2] [h]	onset of disease paralysis [3]
COC(=O)/C=C/C(=O)O [Monomethyl fumarate, monomethylfumarate]	~127	–	–
COC(=O)/C=C/n1nnn(C)c1=O [methyl (E)-3-(4-methyl-5-oxo-4,5-dihydro-1H-tetrazol-1-yl)acrylate]	–	≤ 30	–
COC(=O)/C=C/n1nn[nH]c1=O [methyl (E)-3-(5-oxo-4,5-dihydro-1H-tetrazol-1-yl)acrylate]	–	≤ 30	significantly prevents the onset of disease paralysis
